Non-standard residues stand in square brackets, D forms with d. Residues, ends and D or L forms follow the SMILES beside them.
Tests used:
[1] = stability of opiate-like activity upon incubation with rat brain homogenate and brain-supernate; format: in vitro ADME; conditions: for opiate-like activity after 30 minutes of incubation / opiate-like activity after 120 minutes of incubation: brain homogenate and brain-supernate, 37° C.
Protocol: All incubations of the substances with brain homogenate and brain-supernate take place at 37° C. The respective incubation time is terminated by heating for 10 min. at a temperature of 95° C. This heating up to 95° C. serves to destroy enzymes which are still present and which might be detrimental for the biological procedure for proving the opiate-like activity.
1-2 mg each of the β-casomorphin-5 and of the D-Ala^2 -β-casomorphin-5 according to the invention are put into 50 μl of H2 O and mixed with 300 μl each of brain homogenate and brain-supernate. A sample of each is immediately heated from 37° C. up to 95° C. prior to the incubation. Thus these samples are in contact with the active enzymes only for a very short time and their content of opiate-like activity serves as a reference value at a zero point of time.
After 15, 30, 60, and 120 min. each, further samples of the two incubated opiates are taken from the incubator and heated up to 95° C.
The guinea pig intestine test described by Kosterlitz et al supra, serves as a proving system, which also includes the opiate amounts quantitatively. […]

[2] = stability of opiate-like activity towards rat blood plasma; format: in vitro ADME; conditions: for stability of opiate-like activity towards blood plasma: 300 μl freshly obtained rat blood plasma, 30 minutes stated for β-casomorphin-5
Protocol: Analogously to the above-mentioned incubation example we tested the stability of the opiate-like activity towards blood plasma. Instead of 300 μl of homogenate, we employed 300 μl of freshly obtained rat blood plasma.

[3] = 0.35 μmol into the ventricle system of the brain, rats; cited from earlier work
[4] = analgetic effect after parenteral or oral application in rats; format: in vivo; conditions: up to 150 mg per kg of body weight
Protocol: The dose in these tests amounted up to 150 mg per kg of body weight of the rats. This disadvantage of the known peptides can be partially or completely attributed to inactivation of the substance in the blood and/or the brain.

Molecule: COC(=O)CNC(=O)[C@@H]1CCCN1C(=O)[C@H](Cc1ccccc1)NC(=O)[C@@H](C)NC(=O)[C@@H](N)Cc1ccc(O)cc1 [D-Ala^2 -β-casomorphin-5, Tyr-D-Ala-Phe-Pro-Gly-methylester] (H-Y[dA]FPG-OMe)
- opiate-like activity after 30 minutes of incubation [1]: still could be proven
- opiate-like activity after 120 minutes of incubation [1]: still could be proven
- stability of opiate-like activity towards blood plasma [2]: retained its full activity

Molecule: COC(=O)CNC(=O)[C@@H]1CCCN1C(=O)[C@H](Cc1ccccc1)NC(=O)[C@@H](CCCNC(=N)N)NC(=O)[C@@H](N)Cc1ccc(O)cc1 [D-Arg^2 -β-casomorphin-5, Tyr-D-Arg-Phe-Pro-Gly-methylester] (H-Y[dR]FPG-OMe)
- opiate-like activity after 30 minutes of incubation [1]: still could be proven
- opiate-like activity after 120 minutes of incubation [1]: still could be proven

Molecule: COC(=O)CNC(=O)[C@@H]1CCCN1C(=O)[C@H](Cc1ccccc1)NC(=O)[C@@H](CCSC)NC(=O)[C@@H](N)Cc1ccc(O)cc1 [D-Met^2 -β-casomorphin-5, Tyr-D-Met-Phe-Pro-Gly-methylester] (H-Y[dM]FPG-OMe)
- opiate-like activity after 30 minutes of incubation [1]: still could be proven
- opiate-like activity after 120 minutes of incubation [1]: still could be proven

Molecule: COC(=O)CNC(=O)[C@@H]1CCCN1C(=O)[C@H](Cc1ccccc1)NC(=O)[C@@H](CO)NC(=O)[C@@H](N)Cc1ccc(O)cc1 [D-Ser^2 -β-casomorphin-5, Tyr-D-Ser-Phe-Pro-Gly-methylester] (H-Y[dS]FPG-OMe)
- opiate-like activity after 30 minutes of incubation [1]: still could be proven
- opiate-like activity after 120 minutes of incubation [1]: still could be proven

Molecule: Tyr-Pro-Phe-Pro-Gly (YPFPG; printed: Tyr-Pro-Phe-Pro-Gly) [β-casomorphin-5]
- opiate-like analgesia [3]: strong opiate-like analgesia
- time after which analgesia completely disappeared [3]: 60 min
- time to maximum effectiveness of analgesia [3]: ≤ 10 min
- opiate-like activity after 30 minutes of incubation [1]: did not show any opiate-like activity any longer
- incubation period after which opiate-like activity disappears ([1]; rat brain homogenate): 15 min
- analgetic effect [4]: does not show any analgetic effect
- stability of opiate-like activity towards blood plasma [2]: already destroyed
- incubation period after which opiate-like activity disappears ([2]; blood plasma): 15 min

— patent US4555403A, “Pharmacologically active peptides and medicaments containing the same” (priority 1979, dated 1985)
